Data taken from ChEMBL document CHEMBL1149340, “Optimization and SAR for dual ErbB-1/ErbB-2 tyrosine kinase inhibition in the 6-furanylquinazoline series” (Bioorg Med Chem Lett, 2006).
pIC50: −log10 of the molar value.

Legend:
[1] = target: Receptor tyrosine-protein kinase erbB-2 (Homo sapiens, UniProt P04626)
[2] = system: BT-474; experiment: Inhibition of BT474 cell growth after 72 hrs; format: functional, cell-based; conditions: Homo sapiens, BT-474, 72 h
[3] = system: NCI-N87; experiment: Inhibition of N87 cell growth after 72 hrs; format: functional, cell-based; conditions: Homo sapiens, NCI-N87, 72 h
[4] = system: HN5; experiment: cells; conditions: Homo sapiens, HN5, 72 h
Description: Inhibition of HN5 cell growth after 72 hrs

[5] = target: Epidermal growth factor receptor (Homo sapiens, UniProt P00533)
[6] = system: HFF; experiment: Inhibition of HFF cell growth; conditions: Homo sapiens

Sequence of Epidermal growth factor receptor (P00533 whole entry): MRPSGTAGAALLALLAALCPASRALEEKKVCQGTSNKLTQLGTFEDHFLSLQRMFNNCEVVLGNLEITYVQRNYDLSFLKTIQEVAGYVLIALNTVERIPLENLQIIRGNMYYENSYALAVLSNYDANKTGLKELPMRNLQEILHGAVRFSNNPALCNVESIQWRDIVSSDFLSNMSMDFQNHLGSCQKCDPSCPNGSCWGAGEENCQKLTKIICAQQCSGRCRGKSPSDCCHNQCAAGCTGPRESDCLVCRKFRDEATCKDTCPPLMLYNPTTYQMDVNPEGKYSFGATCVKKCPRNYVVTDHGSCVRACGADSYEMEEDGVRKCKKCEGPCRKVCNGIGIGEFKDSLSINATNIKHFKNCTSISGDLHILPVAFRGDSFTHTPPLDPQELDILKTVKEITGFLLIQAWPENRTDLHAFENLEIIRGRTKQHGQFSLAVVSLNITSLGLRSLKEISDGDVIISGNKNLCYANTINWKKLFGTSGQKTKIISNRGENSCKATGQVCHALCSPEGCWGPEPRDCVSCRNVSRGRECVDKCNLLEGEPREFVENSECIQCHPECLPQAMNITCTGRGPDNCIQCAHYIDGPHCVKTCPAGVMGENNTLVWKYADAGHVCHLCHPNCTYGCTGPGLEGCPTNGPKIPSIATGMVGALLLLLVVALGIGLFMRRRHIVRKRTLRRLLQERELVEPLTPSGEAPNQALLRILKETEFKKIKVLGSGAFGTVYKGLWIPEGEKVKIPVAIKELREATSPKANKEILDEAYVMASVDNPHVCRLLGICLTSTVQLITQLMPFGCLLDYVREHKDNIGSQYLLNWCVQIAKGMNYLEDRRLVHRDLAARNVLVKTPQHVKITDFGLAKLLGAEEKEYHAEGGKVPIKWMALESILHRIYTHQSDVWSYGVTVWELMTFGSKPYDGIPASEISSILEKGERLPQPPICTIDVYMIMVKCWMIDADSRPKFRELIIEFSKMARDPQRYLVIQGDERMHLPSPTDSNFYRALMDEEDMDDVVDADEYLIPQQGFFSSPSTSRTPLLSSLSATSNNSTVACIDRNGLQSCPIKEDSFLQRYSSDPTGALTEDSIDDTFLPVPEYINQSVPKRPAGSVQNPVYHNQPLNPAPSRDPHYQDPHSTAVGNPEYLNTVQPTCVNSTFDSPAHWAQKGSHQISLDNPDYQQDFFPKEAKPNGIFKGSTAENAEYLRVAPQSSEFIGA
Sequence of Receptor tyrosine-protein kinase erbB-2 (P04626 whole entry): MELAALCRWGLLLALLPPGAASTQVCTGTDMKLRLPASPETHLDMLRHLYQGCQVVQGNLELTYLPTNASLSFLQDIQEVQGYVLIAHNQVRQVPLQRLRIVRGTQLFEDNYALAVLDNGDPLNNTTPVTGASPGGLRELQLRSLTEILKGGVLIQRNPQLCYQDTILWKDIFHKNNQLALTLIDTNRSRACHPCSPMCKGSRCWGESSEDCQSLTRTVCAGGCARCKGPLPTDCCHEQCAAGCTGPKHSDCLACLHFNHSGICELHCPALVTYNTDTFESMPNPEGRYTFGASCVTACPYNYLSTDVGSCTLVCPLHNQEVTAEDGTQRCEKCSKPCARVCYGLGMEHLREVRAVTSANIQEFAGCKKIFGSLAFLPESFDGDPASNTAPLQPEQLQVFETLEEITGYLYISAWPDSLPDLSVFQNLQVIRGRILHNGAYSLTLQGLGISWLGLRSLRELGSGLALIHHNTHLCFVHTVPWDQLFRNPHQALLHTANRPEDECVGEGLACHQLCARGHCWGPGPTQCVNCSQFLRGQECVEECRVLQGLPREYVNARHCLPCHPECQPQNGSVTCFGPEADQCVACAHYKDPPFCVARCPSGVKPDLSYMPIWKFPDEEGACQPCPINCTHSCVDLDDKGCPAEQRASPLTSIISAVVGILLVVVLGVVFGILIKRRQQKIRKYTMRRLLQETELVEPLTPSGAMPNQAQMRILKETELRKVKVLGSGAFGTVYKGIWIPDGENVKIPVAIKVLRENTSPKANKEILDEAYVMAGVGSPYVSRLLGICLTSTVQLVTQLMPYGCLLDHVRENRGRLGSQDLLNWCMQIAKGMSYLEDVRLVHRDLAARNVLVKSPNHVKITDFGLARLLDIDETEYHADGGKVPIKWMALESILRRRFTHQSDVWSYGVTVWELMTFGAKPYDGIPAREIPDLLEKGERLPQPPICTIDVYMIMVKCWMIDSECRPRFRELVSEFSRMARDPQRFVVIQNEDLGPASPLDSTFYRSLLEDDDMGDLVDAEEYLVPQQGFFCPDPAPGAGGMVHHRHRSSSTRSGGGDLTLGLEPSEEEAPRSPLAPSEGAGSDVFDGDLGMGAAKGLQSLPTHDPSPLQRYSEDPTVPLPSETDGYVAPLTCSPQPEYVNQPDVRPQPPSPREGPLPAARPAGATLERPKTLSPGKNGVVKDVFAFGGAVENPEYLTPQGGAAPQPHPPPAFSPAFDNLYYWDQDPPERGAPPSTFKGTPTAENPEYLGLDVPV

pIC50 [1] | pIC50 [2] | pIC50 [4] | pIC50 [5] | SMILES | pIC50 [3] | pIC50 [6]
7.52 | 5.98 | 5.97 | 7.72 | O=S(=O)(CCNCc1ccc(-c2ccc3ncnc(Nc4ccc(OCc5cccc(F)c5)c(Cl)c4)c3c2)o1)c1ccccc1 | 6.06 | 
7.42 |  |  | 7.30 | O=S(=O)(CCCCNCc1ccc(-c2ccc3ncnc(Nc4ccc(OCc5ccccc5)c(Cl)c4)c3c2)o1)c1ccccc1 |  | 
7.70 | 6.60 |  | 7.07 | CCCN(CCS(C)(=O)=O)Cc1ccc(-c2ccc3ncnc(Nc4ccc(OCc5cccc(F)c5)c(Cl)c4)c3c2)o1 |  | 
7.74 | 7.00 | 7.22 | 7.55 | [O-][S+]1CCN(Cc2ccc(-c3ccc4ncnc(Nc5ccc(OCc6cccc(F)c6)c(Cl)c5)c4c3)o2)CC1 | 7.10 | 5.09
7.64 | 6.38 | 6.49 | 7.92 | [O-][S+]1CCN(Cc2ccc(-c3ccc4ncnc(Nc5ccc(OCc6ccccc6)c(Cl)c5)c4c3)o2)CC1 | 6.34 | 
7.59 | 6.55 | 6.19 | 7.57 | CS(=O)(=O)CCNCc1ccc(-c2ccc3ncnc(Nc4ccc(OCc5ccccc5)cc4)c3c2)o1 | 6.06 | 
7.51 | 6.11 | 6.08 | 7.62 | CS(=O)(=O)CCNCc1ccc(-c2ccc3ncnc(Nc4ccc(OCc5cccc(F)c5)cc4)c3c2)o1 | 6.07 | 
6.44 | 5.38 | 5.16 | 7.04 | CS(=O)(=O)CCNCc1ccc(-c2ccc3ncnc(Nc4ccc(OCc5cccc(C(F)(F)F)c5)cc4)c3c2)o1 | 5.28 | 
7.62 | 6.70 |  |  | CC(C)S(=O)(=O)CCNCc1ccc(-c2ccc3ncnc(Nc4ccc(OCc5cccc(F)c5)c(Cl)c4)c3c2)o1 | 6.89 | < 4.52
 | 6.57 |  |  | CS(=O)(=O)CCNCc1ccc(-c2ccc3ncnc(Nc4ccc(OCc5ccccc5)c(Br)c4)c3c2)o1 | 6.43 | 
 | 5.68 |  |  | COc1cc(Nc2ncnc3ccc(-c4ccc(CNCCS(C)(=O)=O)o4)cc23)ccc1OCc1cccc(F)c1 | 5.72 | 
7.77 | 6.77 |  | 7.59 | CS(=O)(=O)CCOCc1ccc(-c2ccc3ncnc(Nc4ccc(OCc5cccc(F)c5)c(Cl)c4)c3c2)o1 |  | < 4.52
7.46 | 5.92 | 6.00 | 7.80 | [O-][S+]1CCN(Cc2ccc(-c3ccc4ncnc(Nc5ccc(OCc6ccccc6)c(F)c5)c4c3)o2)CC1 | 5.95 | 
6.85 | 5.52 | 5.95 | 7.05 | [O-][S+]1CCN(Cc2ccc(-c3ccc4ncnc(Nc5ccc(OCc6cccc(F)c6)c(C(F)(F)F)c5)c4c3)o2)CC1 | 5.68 | 
7.66 | 6.60 | 6.60 | 7.74 | CS(=O)(=O)CCNCc1ccc(-c2ccc3ncnc(Nc4ccc(OCc5ccccc5)c(Cl)c4)c3c2)o1 | 6.55 | 
7.59 | 5.50 | 5.80 | 7.68 | CCCS(=O)(=O)CCNCc1ccc(-c2ccc3ncnc(Nc4ccc(OCc5cccc(F)c5)c(Cl)c4)c3c2)o1 | 5.06 | 
7.00 | 5.67 | 5.59 | 7.37 | CS(=O)(=O)CCNCc1ccc(-c2ccc3ncnc(Nc4ccc(OCc5cccc(Br)c5)cc4)c3c2)o1 | 5.46 | 
6.70 | 4.99 | 5.23 | 6.80 | CS(=O)(=O)CCNCc1ccc(-c2ccc3ncnc(Nc4ccc(OCc5ccccc5)c(C(F)(F)F)c4)c3c2)o1 | 5.19 | 
6.85 | 6.21 |  |  | CS(=O)(=O)CCN(Cc1ccccc1)Cc1ccc(-c2ccc3ncnc(Nc4ccc(OCc5cccc(F)c5)c(Cl)c4)c3c2)o1 |  | 
6.66 | 5.35 | 5.71 | 7.10 | CS(=O)(=O)CCNCc1ccc(-c2ccc3ncnc(Nc4ccc(OCc5cccc(F)c5)c(C(F)(F)F)c4)c3c2)o1 [GW576484X] | 5.54 | 
7.55 |  |  | 7.60 | O=S(=O)(CCOCc1ccc(-c2ccc3ncnc(Nc4ccc(OCc5cccc(F)c5)c(Cl)c4)c3c2)o1)c1ccccc1 [GW615311X] |  | 
7.66 | 7.17 |  | 7.57 | CS(=O)(=O)CCN(CC#N)Cc1ccc(-c2ccc3ncnc(Nc4ccc(OCc5cccc(F)c5)c(Cl)c4)c3c2)o1 [GW616030X] |  | < 4.52
 | 7.10 |  |  | CS(=O)(=O)CCNCc1ccc(-c2ccc3ncnc(Nc4ccc(OCc5cccc(F)c5)c(Cl)c4)c3c2)o1 [LAPATINIB] | 7.10 | 5.00
